Calls of active or inactive are those of the source. The calls are words filed in the database; no cut-off is given here.
Key:
[1] = target: T1, Type-1 angiotensin II receptor A (Rattus norvegicus, UniProt P25095); test: Displacement of [125I]SI-Ang2 from AT1 receptor in Sprague-Dawley rat liver membrane; assay type: cell membranes
T1 sequence (P25095 whole entry): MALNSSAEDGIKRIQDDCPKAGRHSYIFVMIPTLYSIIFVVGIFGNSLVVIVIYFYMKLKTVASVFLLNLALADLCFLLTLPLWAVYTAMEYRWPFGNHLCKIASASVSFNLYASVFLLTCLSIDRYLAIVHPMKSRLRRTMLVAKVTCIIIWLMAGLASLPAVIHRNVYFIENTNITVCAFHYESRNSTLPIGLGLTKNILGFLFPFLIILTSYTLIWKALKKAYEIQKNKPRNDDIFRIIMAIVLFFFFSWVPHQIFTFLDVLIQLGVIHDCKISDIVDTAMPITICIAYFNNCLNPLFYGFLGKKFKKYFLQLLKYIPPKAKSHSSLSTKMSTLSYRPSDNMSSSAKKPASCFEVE

[2] = target: T2, Peroxisome proliferator-activated receptor gamma (Homo sapiens) (UniProt P37231); test: Agonist activity at human recombinant PPARgamma expressed in CV1 cells coexpressing GAL4 assessed as receptor transactivation at 10 uM by luciferase reporter gene assay relative to full agonist; assay type: functional, cell-based; details: CV-1
T2 sequence (whole entry): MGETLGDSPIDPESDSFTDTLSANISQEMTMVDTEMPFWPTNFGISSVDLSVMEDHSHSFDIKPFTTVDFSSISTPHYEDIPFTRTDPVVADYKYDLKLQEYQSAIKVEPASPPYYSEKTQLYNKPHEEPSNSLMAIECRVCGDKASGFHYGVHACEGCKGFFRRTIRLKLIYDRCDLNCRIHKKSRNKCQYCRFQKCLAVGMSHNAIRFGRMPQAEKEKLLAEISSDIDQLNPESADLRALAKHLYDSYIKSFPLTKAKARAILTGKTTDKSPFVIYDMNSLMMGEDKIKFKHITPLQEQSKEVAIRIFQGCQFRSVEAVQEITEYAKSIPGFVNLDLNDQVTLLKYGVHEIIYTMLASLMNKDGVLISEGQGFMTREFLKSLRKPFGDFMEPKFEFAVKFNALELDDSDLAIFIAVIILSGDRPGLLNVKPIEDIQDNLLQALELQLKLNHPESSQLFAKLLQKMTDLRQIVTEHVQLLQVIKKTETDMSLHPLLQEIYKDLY

[3] = target: T3, Peroxisome proliferator-activated receptor alpha (Homo sapiens, UniProt Q07869); test: Agonist activity at PPARalpha assessed as receptor transactivation by reporter gene assay; assay type: functional
T3 sequence (Q07869 whole entry): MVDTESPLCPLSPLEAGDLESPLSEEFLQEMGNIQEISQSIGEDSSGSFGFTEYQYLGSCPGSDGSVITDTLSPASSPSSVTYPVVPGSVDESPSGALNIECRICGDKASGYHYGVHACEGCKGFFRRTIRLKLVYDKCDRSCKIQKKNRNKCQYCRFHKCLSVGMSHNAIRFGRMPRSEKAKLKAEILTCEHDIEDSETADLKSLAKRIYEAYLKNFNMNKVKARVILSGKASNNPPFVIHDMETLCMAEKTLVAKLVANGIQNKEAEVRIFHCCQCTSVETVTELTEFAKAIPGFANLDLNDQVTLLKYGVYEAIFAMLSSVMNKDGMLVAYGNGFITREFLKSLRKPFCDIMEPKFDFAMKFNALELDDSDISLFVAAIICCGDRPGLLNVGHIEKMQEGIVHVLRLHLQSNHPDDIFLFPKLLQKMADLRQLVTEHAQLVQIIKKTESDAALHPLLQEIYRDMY

[4] = target: Peroxisome proliferator-activated receptor alpha (Homo sapiens) (UniProt Q07869); test: Agonist activity at human recombinant PPARalpha expressed in CV1 cells coexpressing GAL4 assessed as receptor transactivation at 10 µM by luciferase reporter gene assay relative to full agonist; details: CV-1
[5] = target: T4, Peroxisome proliferator-activated receptor alpha (Homo sapiens) (UniProt Q07869); test: Agonist activity at PPARalpha assessed as receptor transactivation by reporter gene assay relative to control; assay type: functional
T4 sequence (whole entry): T3 sequence (Q07869 whole entry)

SMILES	Ki [1] [µM]	Activity [2]	EC50 [3] [µM]	Activity [4] [%]	Activity [5] [%]
CCCc1nc2c(C)cccc2n1Cc1ccc(/C=C/C(=O)OCC)cc1	> 10	4%			
CCCc1nc2c(C)cccc2n1Cc1ccc(CCc2nnn[nH]2)cc1	2.84	inactive			
CCCc1nc2c(C)cccc2n1CCOc1ccc(CC(C)(C)C(=O)OCC)cc1	> 10	10%			
CCCc1nc2c(C)cc(-c3nc4ccccc4n3C)cc2n1Cc1ccc(-c2ccccc2C(=O)O)cc1		21.9%			
CCCc1nc2c(C)cccc2n1Cc1ccc(OC(C)(C)C(=O)OCC)cc1	> 10	21%			
CCCc1nc2c(C)cccc2n1Cc1ccc(OCc2nnn[nH]2)cc1	5.06	inactive			
CCCc1nc2c(C)cc(-c3nc4ccccc4n3C)cc2n1CCOc1ccc(CC(C)(Oc2ccccc2)C(=O)O)cc1 (centres undefined)	2.23	12%			
CCCc1nc2c(C)cccc2n1CCOc1ccc(CC(C)(Oc2ccccc2)C(=O)OCC)cc1 (centres undefined)	> 10	69%	0.3	93	93
CCCc1nc2c(C)cc(-c3nc4ccccc4n3C)cc2n1CCOc1ccc(CCc2nnn[nH]2)cc1	1.62	inactive			
CCCc1nc2c(C)cc(-c3nc4ccccc4n3C)cc2n1Cc1ccc(CCc2nnn[nH]2)cc1	0.0134	inactive			
CCCc1nc2c(C)cccc2n1Cc1ccc(OCC(=O)OCC)cc1	> 10				
CCCc1nc2c(C)cccc2n1Cc1ccc(CCC(=O)OC)cc1	> 10	2%			
CCCc1nc2c(C)cc(-c3nc4ccccc4n3C)cc2n1CCOc1ccc(CC(C)(Oc2ccccc2)C(=O)OCC)cc1 (centres undefined)	2.53	29%		15	15
